Results published in patent US20180289678A1, “PHARMACEUTICAL COMPOSITION, PHARMACEUTICAL DOSAGE FORM, PROCESS FOR THEIR PREPARATION, METHODS FOR TREATING AND USES THEREOF” (Boehringer Ingelheim International GmbH, priority 2009, published 2018).
Read-outs that look alike come from different tables or passages of the source.

Columns and labels:
[1] = Study .4: 4-week treatment of diabetic patients, once daily, pharmacokinetic parameters; assay type: in vivo, human; conditions: for AUCτ,ss,norm Max / AUCτ,ss,norm Median / AUCτ,ss,norm Min / AUCτ,ss,norm gMean: Study .4, steady state, dose-normalized
Procedure: 5. Pharmacokinetic Parameters
The pharmacokinetic parameters of pharmaceutical compositions and pharmaceutical dosage forms are assessed in healthy volunteer and patient populations. In the studies shown below, the participants fasted on the day of sampling, unless as otherwise stated (see for example study .3). The active substance in the studies below is the compound (I.9), preferably in the crystalline form (I.9X), and the dose of active ingredient is indicated in mg.
For the quantification of plasma concentrations of the active ingredient, 2.7 mL of blood was collected and transferred into an EDTA (ethylendiaminetetraacetic acid)-anticoagulant blood drawing tube. The EDTA-anticoagulated blood samples were centrifuged immediately after collection. Centrifugation lasted for about 10 minutes (at about 2,000×gf to 4,000×gf) at 4-8° C. or within 30 minutes while stored on ice. Concentrations of active substance in EDTA human plasma samples were quantitated using a HPLC/MS/MS method. The assay method comprised a solid phase supported liquid-liquid extraction of human plasma coupled with HPLC/MS/MS determination of the extracted samples. The HPLC/MS/MS assay was validated for the range of 1.11 to 1110 nM in human plasma.
Study .4: 4-week treatment of a diabetic patient population of N=78, once daily administration for 4 weeks. Patients were administered tablets as described in Example 10 (section Examples of formulations).
AUC0-inf:area under the concentration-time curve of the analyte in plasma over the time interval from 0 extrapolated to infinity.
Cmax: maximum concentration of the analyte in plasma.
Tmax: time from dosing to maximum concentration.
AUCT,SS:area under the concentration-time curve of the analyte in plasma over the time interval from 0 to 24 h at steady-state.
Cmax,ss:maximum concentration of the analyte in plasma at steady state over a uniform dosing interval.
tmax,ss:time from dosing to maximum concentration at steady state.

[2] = system: Zucker Diabetic Fatty (ZDF) rats; test: Oral glucose tolerance test in ZDF rats; assay type: in vivo, rat; conditions: oral glucose load
Procedure: According to a first example an oral glucose tolerance test is performed in overnight fasted 9-weeks old male Zucker Diabetic Fatty (ZDF) rats (ZDF/Crl-Lepr^fa). A pre-dose blood sample is obtained by tail bleed. Blood glucose is measured with a glucometer, and the animals are randomized for blood glucose (n=5/group). Subsequently, the groups receive a single oral administration of either vehicle alone (0.5% aqueous hydroxyethylcellulose containing 3 mM HCl and 0.015% Polysorbat 80) or vehicle containing the SGLT2 inhibitor. The animals receive an oral glucose load (2 g/kg) 30 min after compound administration. Blood glucose is measured in tail blood 30 min, 60 min, 90 min, 120 min, and 180 min after the glucose challenge. Glucose excursion is quantified by calculating the reactive glucose AUC. The data are presented as mean ±SEM. The two-sided unpaired Student t-test is used for statistical comparison of the control group and the active groups.
Compound (I.9) (1-chloro-4-(β-D-glucopyranos-1-yl)-2-[4-((S)-tetrahydrofuran-3-yloxy)-benzyl]-benzene) was orally administered to ZDF rats at doses of 0.3 mg/kg, 3 mg/kg or 30 mg/kg body weight. Compound (I.9) reduced glucose excursion by 15% at 0.3 mg/kg (not significant), by 62% at 3 mg/kg (p<0.001) and by 89% at 30 mg/kg (p<0.001).

[3] = 10 mg once daily, steady state, Study .4, fasted
[4] = 10 mg single dose, Study .4, fasted
[5] = 25 mg once daily, steady state, Study .4, fasted
[6] = 25 mg single dose, Study .4, fasted

Compound: OC[C@H]1O[C@@H](c2ccc(Cl)c(Cc3ccc(O[C@H]4CCOC4)cc3)c2)[C@H](O)[C@@H](O)[C@@H]1O [Compound (I.9), 1-chloro-4-(β-D-glucopyranos-1-yl)-2-[4-((S)-tetrahydrofuran-3-yloxy)-benzyl]-benzene]
- AUCτ,ss Max [1, 3]: 2.6 µM·h
- AUCτ,ss Min [1, 3]: 1.35 µM·h
- tmax,ss Max [1, 3]: 4.00 h
- tmax,ss Min [1, 3]: 0.983 h
- Cmax ([1]; 10 mg once daily, steady state, Study .4, fasted, read-out: Cmax,ss Max): 367 nM
- AUC0-inf Max [1, 4]: 2.41 µM·h
- AUC0-inf Min [1, 4]: 1.39 µM·h
- AUC0-inf,norm Max [1, 4]: 241 nmol·h/L/mg
- AUC0-inf,norm Median [1, 4]: 173 nmol·h/L/mg
- AUC0-inf,norm Min [1, 4]: 139 nmol·h/L/mg
- AUC0-inf,norm gMean [1, 4]: 172 nmol·h/L/mg
- tmax Max [1, 4]: 2.50 h
- tmax Min [1, 4]: 1.00 h
- Cmax ([1]; 10 mg single dose, Study .4, fasted, read-out: Cmax Max): 796 nM
- Cmax ([1]; 10 mg single dose, Study .4, fasted, read-out: Cmax Min): 205 nM
- AUCτ,ss Max [1, 5]: 7.64 µM·h
- AUCτ,ss Min [1, 5]: 2.79 µM·h
- tmax,ss Max [1, 5]: 3.02 h
- tmax,ss Min [1, 5]: 0.750 h
- AUC0-inf Max [1, 6]: 7.17 µM·h
- AUC0-inf Min [1, 6]: 2.84 µM·h
- AUC0-inf,norm Max [1, 6]: 287 nmol·h/L/mg
- AUC0-inf,norm Median [1, 6]: 171 nmol·h/L/mg
- AUC0-inf,norm Min [1, 6]: 114 nmol·h/L/mg
- AUC0-inf,norm gMean [1, 6]: 170 nmol·h/L/mg
- tmax Min [1, 6]: 0.750 h
- Cmax ([1]; 25 mg single dose, Study .4, fasted, read-out: Cmax Max): 1030 nM
- Cmax ([1]; 25 mg single dose, Study .4, fasted, read-out: Cmax Min): 496 nM
- AUCτ,ss,norm Max ([1]; dose 10 mg, plasma): 260 nmol·h/L/mg
- AUCτ,ss,norm Median ([1]; dose 10 mg, plasma): 184 nmol·h/L/mg
- AUCτ,ss,norm Min ([1]; dose 10 mg, plasma): 135 nmol·h/L/mg
- AUCτ,ss,norm gMean ([1]; dose 10 mg, plasma): 185 nmol·h/L/mg
- AUCτ,ss,norm Max ([1]; dose 25 mg, plasma): 306 nmol·h/L/mg
- AUCτ,ss,norm Median ([1]; dose 25 mg, plasma): 179 nmol·h/L/mg
- AUCτ,ss,norm Min ([1]; dose 25 mg, plasma): 112 nmol·h/L/mg
- AUCτ,ss,norm gMean ([1]; dose 25 mg, plasma): 186 nmol·h/L/mg
- AUC ([1]; human, plasma, oral, 10 mg, 10 mg once daily, steady state, Study .4, fasted, read-out: AUCτ,ss Mean): 1.87 µM·h
- AUC ([1]; human, plasma, oral, 10 mg, 10 mg once daily, steady state, Study .4, fasted, read-out: AUCτ,ss Median): 1.84 µM·h
- AUC ([1]; human, plasma, oral, 10 mg, 10 mg once daily, steady state, Study .4, fasted, read-out: AUCτ,ss gMean): 1.85 µM·h
- Cmax ([1]; human, plasma, oral, 10 mg, 10 mg once daily, steady state, Study .4, fasted, read-out: Cmax,ss Mean): 259 nM
- Cmax ([1]; human, plasma, oral, 10 mg, 10 mg once daily, steady state, Study .4, fasted, read-out: Cmax,ss Median): 251 nM
- Cmax ([1]; human, plasma, oral, 10 mg, 10 mg once daily, steady state, Study .4, fasted, read-out: Cmax,ss gMean): 252 nM
- Tmax ([1]; human, plasma, oral, 10 mg, 10 mg once daily, steady state, Study .4, fasted, read-out: tmax,ss Mean): 1.72 h
- Tmax ([1]; human, plasma, oral, 10 mg, 10 mg once daily, steady state, Study .4, fasted, read-out: tmax,ss Median): 1.5 h
- Tmax ([1]; human, plasma, oral, 10 mg, 10 mg once daily, steady state, Study .4, fasted, read-out: tmax,ss g Mean): 1.61 h
- AUC(0-inf) ([1]; human, plasma, oral, 10 mg, 10 mg single dose, Study .4, fasted, read-out: AUC0-inf Mean): 1.74 µM·h
- AUC(0-inf) ([1]; human, plasma, oral, 10 mg, 10 mg single dose, Study .4, fasted, read-out: AUC0-inf Median): 1.73 µM·h
- AUC(0-inf) ([1]; human, plasma, oral, 10 mg, 10 mg single dose, Study .4, fasted, read-out: AUC0-inf gMean): 1.72 µM·h
- Cmax ([1]; human, plasma, oral, 10 mg, 10 mg single dose, Study .4, fasted, read-out: Cmax Mean): 309 nM
- Cmax ([1]; human, plasma, oral, 10 mg, 10 mg single dose, Study .4, fasted, read-out: Cmax Median): 271 nM
- Cmax ([1]; human, plasma, oral, 10 mg, 10 mg single dose, Study .4, fasted, read-out: Cmax gMean): 291 nM
- Tmax ([1]; human, plasma, oral, 10 mg, 10 mg single dose, Study .4, fasted, read-out: tmax Mean): 1.5 h
- Tmax ([1]; human, plasma, oral, 10 mg, 10 mg single dose, Study .4, fasted, read-out: tmax Median): 1.5 h
- Tmax ([1]; human, plasma, oral, 10 mg, 10 mg single dose, Study .4, fasted, read-out: tmax gMean): 1.44 h
- AUC ([1]; human, plasma, oral, 25 mg, 25 mg once daily, steady state, Study .4, fasted, read-out: AUCτ,ss Mean): 4.74 µM·h
- AUC ([1]; human, plasma, oral, 25 mg, 25 mg once daily, steady state, Study .4, fasted, read-out: AUCτ,ss Median): 4.48 µM·h
- AUC ([1]; human, plasma, oral, 25 mg, 25 mg once daily, steady state, Study .4, fasted, read-out: AUCτ,ss gMean): 4.64 µM·h
- Cmax ([1]; human, plasma, oral, 25 mg, 25 mg once daily, steady state, Study .4, fasted, read-out: Cmax,ss Mean): 687 nM
- Cmax ([1]; human, plasma, oral, 25 mg, 25 mg once daily, steady state, Study .4, fasted, read-out: Cmax,ss Median): 671 nM
- Cmax ([1]; human, plasma, oral, 25 mg, 25 mg once daily, steady state, Study .4, fasted, read-out: Cmax,ss gMean): 676 nM
- Tmax ([1]; human, plasma, oral, 25 mg, 25 mg once daily, steady state, Study .4, fasted, read-out: tmax,ss Mean): 1.55 h
- Tmax ([1]; human, plasma, oral, 25 mg, 25 mg once daily, steady state, Study .4, fasted, read-out: tmax,ss Median): 1.5 h
- Tmax ([1]; human, plasma, oral, 25 mg, 25 mg once daily, steady state, Study .4, fasted, read-out: tmax,ss g Mean): 1.4 h
- AUC(0-inf) ([1]; human, plasma, oral, 25 mg, 25 mg single dose, Study .4, fasted, read-out: AUC0-inf Mean): 4.34 µM·h
- AUC(0-inf) ([1]; human, plasma, oral, 25 mg, 25 mg single dose, Study .4, fasted, read-out: AUC0-inf Median): 4.27 µM·h
- AUC(0-inf) ([1]; human, plasma, oral, 25 mg, 25 mg single dose, Study .4, fasted, read-out: AUC0-inf gMean): 4.24 µM·h
- Cmax ([1]; human, plasma, oral, 25 mg, 25 mg single dose, Study .4, fasted, read-out: Cmax Mean): 722 nM
- Cmax ([1]; human, plasma, oral, 25 mg, 25 mg single dose, Study .4, fasted, read-out: Cmax Median): 697 nM
- Cmax ([1]; human, plasma, oral, 25 mg, 25 mg single dose, Study .4, fasted, read-out: Cmax gMean): 709 nM
- Tmax ([1]; human, plasma, oral, 25 mg, 25 mg single dose, Study .4, fasted, read-out: tmax Mean): 1.39 h
- Tmax ([1]; human, plasma, oral, 25 mg, 25 mg single dose, Study .4, fasted, read-out: tmax Median): 1.5 h
- Tmax ([1]; human, plasma, oral, 25 mg, 25 mg single dose, Study .4, fasted, read-out: tmax gMean): 1.33 h
- reduced glucose excursion (baseline-corrected glucose AUC) ([2]; 0.3 mg/kg oral, not significant): 15%
- reduced glucose excursion (baseline-corrected glucose AUC) ([2]; 3 mg/kg oral, p<0.001): 62%
- reduced glucose excursion (baseline-corrected glucose AUC) ([2]; 30 mg/kg oral, p<0.001): 89%
